According to patent publication US10406169B2, “Methods of monitoring estriol therapy” (The Regents of the University of California, priority 2015, dated 2019):

Experiment: Safety and adverse events
Assay type: in vivo, human
Text: On study blood tests included complete blood count (CBC) with differential and platelets; chemistry panel including sodium, potassium, creatinine, BUN, glucose, total protein, albumin, bilirubin (total), alkaline phosphatase, AST (SGOT), and ALT (SGPT), and lipid profile (HDL, LDL and triglycerides, cholesterol. […] Adverse event analysis was based on the percentage of patients who discontinued the study and the percentage of patients who discontinued the study possibly due to adverse events.

## glatiramer acetate [Placebo + GA]
Breast
  Fibrocystic disease on clinical exam - %: (5) %
  Fibrocystic disease on clinical exam - no.: 4
  Mammogram with malignancy - no.: 0
Completed
  Breast adverse events, # of patients: [5]
  Breast adverse events, number of events: 5
  Cardiovascular adverse events, # of patients: [8]
  Cardiovascular adverse events, number of events: 8
  Extremity adverse events, # of patients: [21]
  Extremity adverse events, number of events: 43
  GA related? adverse events, # of patients: [11]
  GA related? adverse events, number of events: 22
  GI adverse events, # of patients: [15]
  GI adverse events, number of events: 19
  GU adverse events, # of patients: [10]
  GU adverse events, number of events: 17
  GYN adverse events, # of patients: [15]
  GYN adverse events, number of events: 18
  General adverse events, # of patients: [26]
  General adverse events, number of events: 48
  Head/Neck adverse events, # of patients: [26]
  Head/Neck adverse events, number of events: 42
  Lymph adverse events, # of patients: [1]
  Lymph adverse events, number of events: 1
  MRI related adverse events, # of patients: [2]
  MRI related adverse events, number of events: 3
  Menses adverse events, # of patients: [10]
  Menses adverse events, number of events: 14
  Mental adverse events, # of patients: [10]
  Mental adverse events, number of events: 14
  Neurology adverse events, # of patients: [9]
  Neurology adverse events, number of events: 13
  Respiratory adverse events, # of patients: [26]
  Respiratory adverse events, number of events: 47
  Skeleton adverse events, # of patients: [1]
  Skeleton adverse events, number of events: 2
  Skin adverse events, # of patients: [10]
  Skin adverse events, number of events: 15
  Total adverse events, # of patients: [53]
  Total adverse events, number of events: 331
Discontinued
  Cancer adverse events, # of patients: [1]
  Cancer adverse events, number of events: 1
  Extremity adverse events, # of patients: [2]
  Extremity adverse events, number of events: 4
  GA related? adverse events, # of patients: [4]
  GA related? adverse events, number of events: 10
  GI adverse events, # of patients: [3]
  GI adverse events, number of events: 3
  GU adverse events, # of patients: [3]
  GU adverse events, number of events: 3
  GYN adverse events, # of patients: [3]
  GYN adverse events, number of events: 3
  General adverse events, # of patients: [6]
  General adverse events, number of events: 9
  Head/Neck adverse events, # of patients: [4]
  Head/Neck adverse events, number of events: 9
  Lymph adverse events, # of patients: [1]
  Lymph adverse events, number of events: 1
  Menses adverse events, # of patients: [2]
  Menses adverse events, number of events: 3
  Mental adverse events, # of patients: [5]
  Mental adverse events, number of events: 5
  Neurology adverse events, # of patients: [1]
  Neurology adverse events, number of events: 1
  Respiratory adverse events, # of patients: [3]
  Respiratory adverse events, number of events: 7
  Skin adverse events, # of patients: [2]
  Skin adverse events, number of events: 2
  Total adverse events, # of patients: [13]
  Total adverse events, number of events: 61
Uterus
  Abnormal proliferation on biopsy - no.: 0
  Endometrial biopsies performed - %: (8) %
  Endometrial biopsies performed - no.: 6
  Endometrial thickness >8 mm (ultrasound) - %: (36) %
  Endometrial thickness >8 mm (ultrasound) - no.: 27
  Fibroids (ultrasound) - %: (11) %
  Fibroids (ultrasound) - no.: 8
In vivo
  Adverse events leading to discontinuation - %: (6%)
  Adverse events leading to discontinuation - no.: 5
  Any adverse event - % of pts: 87%
  Any adverse event - no of pts: 67
  Any adverse event - no. of events: 392
  Arm/leg numbness, tingling - % of pts: 9%
  Arm/leg numbness, tingling - no of pts: 7
  Arm/leg numbness, tingling - no. of events: 10
  Back pain - % of pts: 6%
  Back pain - no of pts: 5
  Back pain - no. of events: 5
  Copaxone injection area abnormalities - % of pts: 18%
  Copaxone injection area abnormalities - no of pts: 14
  Copaxone injection area abnormalities - no. of events: 30
  Depression/anxiety - % of pts: 12%
  Depression/anxiety - no of pts: 9
  Depression/anxiety - no. of events: 10
  Dizziness - % of pts: 9%
  Dizziness - no of pts: 7
  Dizziness - no. of events: 10
  Fatigue - % of pts: 10%
  Fatigue - no of pts: 8
  Fatigue - no. of events: 10
  Gastroenteritis - % of pts: 4%
  Gastroenteritis - no of pts: 3
  Gastroenteritis - no. of events: 4
  Headache - % of pts: 14%
  Headache - no of pts: 11
  Headache - no. of events: 12
  Heart palpitation - % of pts: 5%
  Heart palpitation - no of pts: 4
  Heart palpitation - no. of events: 4
  Insomnia - % of pts: 5%
  Insomnia - no of pts: 4
  Insomnia - no. of events: 4
  Irregular menses/spotting - % of pts: 4%
  Irregular menses/spotting - no of pts: 3
  Irregular menses/spotting - no. of events: 4
  Menstrual cramp - % of pts: 5%
  Menstrual cramp - no of pts: 4
  Menstrual cramp - no. of events: 5
  Menstrual flow amount increased - % of pts: 8%
  Menstrual flow amount increased - no of pts: 6
  Menstrual flow amount increased - no. of events: 8
  Nausea/vomiting - % of pts: 6%
  Nausea/vomiting - no of pts: 5
  Nausea/vomiting - no. of events: 5
  Severe adverse events - % of pts: 13%
  Severe adverse events - no of pts: 10
  Severe adverse events - no. of events: 12
  Shingles - % of pts: 5%
  Shingles - no of pts: 4
  Shingles - no. of events: 4
  Sinusitis - % of pts: 13%
  Sinusitis - no of pts: 10
  Sinusitis - no. of events: 14
  Upper respiratory infection - % of pts: 34%
  Upper respiratory infection - no of pts: 26
  Upper respiratory infection - no. of events: 38
  Urinary tract infection - % of pts: 13%
  Urinary tract infection - no of pts: 10
  Urinary tract infection - no. of events: 16
  Vaginal infection - % of pts: 10%
  Vaginal infection - no of pts: 8
  Vaginal infection - no. of events: 9
  Vision problem (blurry, double) - % of pts: 9%
  Vision problem (blurry, double) - no of pts: 7
  Vision problem (blurry, double) - no. of events: 7
Severe adverse event
  Accidently took other's drug - % of pts: [1, 1%]
  Accidently took other's drug - no of pts: [1, 1%]
  Accidently took other's drug - no. of events: 1
  Acute appendicitis - % of pts: [1, 1%]
  Acute appendicitis - no of pts: [1, 1%]
  Acute appendicitis - no. of events: 1
  B-cell lymphoma - % of pts: [1, 1%]
  B-cell lymphoma - no of pts: [1, 1%]
  B-cell lymphoma - no. of events: 1
  Car accident related body numbness - % of pts: [1, 1%]
  Car accident related body numbness - no of pts: [1, 1%]
  Car accident related body numbness - no. of events: 1
  Heart failure - no. of events: 0
  MS relapse - % of pts: 6%
  MS relapse - no of pts: 5
  MS relapse - no. of events: 6
  Migraine headache related eye pain - no. of events: 0
  Pace maker implantation - no. of events: 0
  Pregnancy termination - no. of events: 0
  Pyelonephritis - no. of events: 0
  Right knee replacement - % of pts: [1, 1%]
  Right knee replacement - no of pts: [1, 1%]
  Right knee replacement - no. of events: 1
  Systolic heart failure - no. of events: 0
  UTI - % of pts: [1, 1%]
  UTI - no of pts: [1, 1%]
  UTI - no. of events: 1
